The test system of assay [1] is panel of 17 human histone methytransferases. The assay can be described thus: Selectivity against a panel of 17 human histone methyltransferases. Particulars: versus chaetocin A. It is filed as biochemical. The source says: In accordance with one or more embodiments of the present invention, the role of H3K9me3 in learning and memory in an animal model of aging using a newly developed analog of the epidithiodiketopiperazine alkaloid chaetocin A called ETP69, illustrated in FIG. 1, is studied.

The test system of the next assay is bdnf promoters. The assay can be described thus: ChIP for H3K9me3 at BDNF promoter regions in hippocampus. In kind it is in vivo. The conditions noted are these: aged mice, ETP69 versus controls. How it is done:
ChIP for BDNF promoter regions: After cross-linking with 1% formaldehyde, chromatin was sheared to fragments of 200-500 bp. Immunoprecipitation was realized overnight at 4° C. with an antibody directed against histone H3K9me3 (H3K9me3; Millipore). After washes, elution from beads, and reversal of the cross-link, immunoprecipitated DNA was purified and analyzed in triplicate by qRT-PCR with an internal standard curve prepared from pooled input samples. Each sample was normalized with the respective input value. Primers for bdnf promoters for exon I, IV, and VI correspond to each unique exon sequence. RT-qPCR primer sets were designed using the Roche Universal Probe Library Assay Design Center and obtained from Integrated DNA Technologies (Coralville, IA). RT-qPCR reactions were run in a Stratagene MX3005P thermocycler at 95° C. for 3 min, followed by 45 cycles of 95° C. for 10 s, and 58° C. for 15 s. Each RT-qPCR run included all samples run in triplicate and a standard curve. Data were analyzed by the 2^−ΔΔct method and expressed as fold change over control after normalizing with input samples, as described previously.

Another assay relates to young C57Bl/6J male mice. The assay can be described thus: Object location memory (OLM) task in young mice. In kind it is in vivo. How it is done:
Object Location Memory (OLM): Training and testing procedures were performed using a standard OLM protocol. Briefly, 22 aged mice and 18 young mice were handled for about 2-3 minutes per day for 5 days, followed by habituation to the experimental apparatus (white rectangular open field measuring 30×23×21.5 cm) for 5 min per day for 5 consecutive days before training.
18 young mice were also tested in the same OLM paradigm as described above. To determine whether the drug impacted acquisition or consolidation mechanisms, the young mice were injected with the 10 mg/kg compound or vehicle (i.p, n=6/group), either just before or right after the acquisition trial, and tested 24 hours post-acquisition. FIG. 3 is a graphical representation of the results of OLM test showing the differences in exploration between mice treated with either vehicle, or 10 mg/kg of ETP69. […] Data are mean±SEM; n=7 or 8/group.

Entries after “also recorded” stand apart in the source; their conditions may differ.

The values that follow come from patent US12622916B2, “Use of H3K9me3 modulation for enhancing cognitive function” (THE REGENTS OF THE UNIVERSITY OF CALIFORNIA, priority 2015, dated 2026).

In the case of `CN1C(=O)[C@@]23C[C@](C)(C#N)[C@H](c4ccc5c(c4)OCO5)N2C(=O)[C@]1(C)SS3` (racemic) [ETP69, Rac-(3S,6S,7S,8aS)-6-(benzo[d][1,3]dioxol-5-yl)-2,3,7-trimethyl-1,4-dioxohexahydro-6H-3,8a-epidithiopyrrolo[1,2-a]pyrazine-7-carbonitrile], the “selectivity against a panel of 17 human histone methytransferases compared with chaetocin A” value in assay [1] was “significantly greater selectivity”. For the same compound, the “H3K9me3 at bdnf promoter I (Exon 1)” value in the assay on bdnf promoters is “significant effect of treatment; also recorded: significantly lower”. Moreover, the “OLM acquisition phase: group differences” value in the assay with young C57Bl/6J male mice (10 mg/kg i.p.) is “no significant group differences”. Further, the “OLM performance, pre-trial administration” value in the assay on young C57Bl/6J male mice (10 mg/kg i.p. 30 minutes prior to acquisition phase) was “did not show any statistical differences”. In the assay on young C57Bl/6J male mice (10 mg/kg i.p. immediately after acquisition), the “OLM performance, post-trial administration” value is “did not show any statistical differences”.
